Reference: US20110144578A1, “HYDROPHOBIC THERAPUEUTIC AGENT AND SOLID EMULSIFIER COATING FOR DRUG COATED BALLOON” (priority 2009, published 2011)
Values after ≈ are worked out from the molar mass of the structure shown.

Tests used:
[1] = Solubility enhancement screening in 5% (w/w) excipient solutions in phosphate buffered saline, HPLC of supernatant; assay type: physicochemical; settings: aqueous buffer, thermodynamic from solid, 37° C., n = 3, read-out: Zotarolimus Solubility
Method: Emulsifier candidates can be screened by measuring the degree to which they can enhance the solubility of the therapeutic agent. One way to accomplish this is to make 5% (w/w) solutions of the emulsifiers of interest in a phosphate buffered saline solution. An excess amount of drug is added to the solution and incubated with stirring at 37° C. After centrifugation to precipitate all solids, the supernatant is assayed by HPLC for the drug concentration.

[2] = physchem; settings: water
Description: Using the Stokes-Einstein equation as a simple model, diffusion coefficients are approximately proportional to the molecular weight of a species raised to the −⅓ power. Thus, individual molecules or micelles, which are low in molecular weight, tend to diffuse much faster than microspheres or nanoparticles, which are much higher in molecular weight.

solubility [1]: 0.53 µg/mL | solubility [2]: 0.5 µg/mL (≈ 0.517 µM)
Structure (SMILES): CO[C@H]1C[C@@H]2CC[C@@H](C)[C@@](O)(O2)C(=O)C(=O)N2CCCC[C@H]2C(=O)O[C@H]([C@H](C)C[C@@H]2CC[C@H](n3cnnn3)[C@H](OC)C2)CC(=O)[C@H](C)/C=C(\C)[C@@H](O)[C@@H](OC)C(=O)[C@H](C)C[C@H](C)/C=C/C=C/C=C/1C [Zotarolimus, zotarolimus]
